Patent publication US10100011B2, “Pentadienoyl piperidine derivative and use thereof” (Industry-Academic Cooperation Foundation, Yonsei University, priority 2014, dated 2018)

How the values were obtained:
3T3L1 cells = assay: Adipocyte differentiation inhibition in preadipocytes (Oil-red O staining); assay type: cell-based, mouse; conditions: Mus musculus, 3T3-L1, treated every two days during 14 days differentiation, Oil-red O O.D. 600 nm, read-out: adipocyte differentiation inhibition activity, EC50 value
Description: Preadipocytes, 3T3L1 cells, were aliquoted into a 12-well plate and cultured in a DMEM medium containing 1% penicillin-streptomycin, 1% nonessential amino acid, and 10% fetal bovine serum (FBS) in a 5% CO2 incubator at 37° C. until confluence. The 3T3L1 cells grown to confluence were cultured for two days in a medium containing 0.5 mM isobutyl-methylxanthine, 1 μM dexamethasone (MDI), and 1 μg/ml insulin, thereby being differentiated into adipocytes. Subsequently, the differentiated adipocytes were further cultured for two days in a DMEM medium including 1 μg/ml insulin, thereby being differentiated into mature adipocytes. Subsequently, the differentiated mature adipocytes were further cultured for 10 days while replacing a used DMEM medium with a new DMEM medium every two days. As a result, completely differentiated adipocytes were formed.
3T3-L1 cells were treated with each of a total of four novel compound types at different concentrations every two days from the first day of cell differentiation induction by addition of DMI. Each of the derivative compounds was dissolved in DMSO and then used. A negative control group including only DMSO was included in this experiment. Cell culture was carried out for 14 days. When differentiation was completed, a medium was removed and lipid droplets contained in differentiated adipocytes were stained. To stain the lipid droplets, cells were washed with phosphate buffered saline (PBS) twice and then fixed with 10% buffered neutral formalin for one hour, followed by washing with PBS once. Subsequently, 1 ml of Oil-red-O dye for staining lipid droplets red was fed into a 12-well plate and lipid droplets were stained for one hour, followed by washing with distilled water twice. To measure the concentration of neutral fat contained in the differentiated 3T3L1 cells, the stained lipid droplets were dissolved in 1 ml of isobutanol, followed by measuring an O.D value at 600 nm.

[1] = biological target: T1, human recombinant SIRT1 enzyme (Homo sapiens, UniProt Q96EB6); assay: SIRT1 activity measurement (SIRT1 Fluorometric Drug Discovery Kit); assay type: biochemical
T1 construct: purchased ENZO Life Sciences Inc., NY, USA BML-AK555
T1 sequence (Q96EB6 1-747): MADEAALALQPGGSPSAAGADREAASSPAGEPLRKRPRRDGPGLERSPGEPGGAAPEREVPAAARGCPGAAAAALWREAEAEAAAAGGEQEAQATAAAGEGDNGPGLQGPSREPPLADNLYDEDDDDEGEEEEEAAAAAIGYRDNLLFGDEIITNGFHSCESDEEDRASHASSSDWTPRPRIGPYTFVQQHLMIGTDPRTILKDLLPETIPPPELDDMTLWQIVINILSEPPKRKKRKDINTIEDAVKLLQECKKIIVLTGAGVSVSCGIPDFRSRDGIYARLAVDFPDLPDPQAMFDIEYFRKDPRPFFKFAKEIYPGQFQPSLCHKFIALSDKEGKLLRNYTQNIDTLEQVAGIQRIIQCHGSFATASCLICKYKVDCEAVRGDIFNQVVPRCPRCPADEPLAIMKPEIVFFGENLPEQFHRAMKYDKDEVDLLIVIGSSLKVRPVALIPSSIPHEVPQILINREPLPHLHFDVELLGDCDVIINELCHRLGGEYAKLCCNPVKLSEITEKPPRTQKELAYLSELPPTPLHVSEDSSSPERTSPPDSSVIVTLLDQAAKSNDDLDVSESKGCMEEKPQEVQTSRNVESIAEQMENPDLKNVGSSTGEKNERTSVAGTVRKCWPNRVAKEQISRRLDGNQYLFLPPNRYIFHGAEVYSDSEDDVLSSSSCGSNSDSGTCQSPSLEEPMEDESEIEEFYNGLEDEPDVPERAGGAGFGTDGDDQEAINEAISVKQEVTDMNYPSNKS
Description: To analyze SIRT1 activity in a test tube, a deacetylation degree of acetylated lysine included in a substrate was measured using an SIRT1 Fluorometric Drug Discovery Kit (BML-AK555, ENZO Life Sciences Inc., NY, USA). 0.067 U/μl of a human recombinant SIRT1 enzyme and a test substance were mixed in a 96-well plate and reacted at 37° C. for 10 minutes. Subsequently, 167 μM substrate [379th to 382nd amino acid peptide of human p53, Arg-His-Lys-Lys(Ac)] and 1667 μM NAD^+ were added thereto, followed by reacting at 37° C. for 30 minutes. To stop the reaction of SIRT1, 50 μL of a developer including 2 mM nicotinamide was added, followed by reacting at 37° C. for 30 minutes. Chromophoric fluorescence intensity was measured at 360 nm excitation and 460 nm emission.

C57BL/6J mice = assay: Oral glucose tolerance test, fasting blood glucose and insulin in mice fed high-fat diet; assay type: in vivo, mouse
Description: An obesity induction diet used in this experiment was a high-fat diet (HFD: 40% fat calories, 17 g of lard+3% corn oil/100 g diet), and the compositions of diets including the LJ-2501, LJ-2488, LJ-2495, LJ-2496 compounds were identical to that of HFD, except that each of the compounds was included in an amount of about 0.05% (Table 2). As a control drug, an anti-obesity drug, sibutramine (Sibut), was added in an amount of about 0.01% to the high-fat diet and a normal diet group (Chow) was fed with commercial rodent chow.
5-week old 40 male C57BL/6J mice (Orient Bio., Korea) were fed with hard feed and accommodated in a laboratory environment for one week. Subsequently, in accordance with a randomized block method, the mice were randomly grouped into a normal diet group, a high-fat diet control group, two experimental substance groups, and […] and raised for a total of 10 weeks (n=8/group). Diets were supplied with water between 10 am and 11 am every day. An intake amount was measured every day and the body weights of the mice were measured every week. To prevent temporal weight change due to feed intake, feedboxes were removed and, after two hours, the body weights were measured. The experimental animals were fasted for 12 hours or more and then anesthetized with diethyl ether, followed by collecting blood, liver, and visceral adipose tissues (epididymal fat, perirenal fat, mesenteric fat, and retroperitoneal fat). The collected samples were washed with 0.1 M phosphate buffered saline (pH 7.4) and then weighed. Blood samples collected from abdominal aortas were centrifuged at 1000×g for 15 minutes, thereby separating plasma.
The experimental animals were fasted for 18 hours after being raised eight weeks for experiment and orally administered d-glucose in an amount of 2 g/kg body weight. At 15 minutes, 30 minutes, 60 minutes, 120 minutes after the d-glucose administration, blood was collected from the tail veins of the mice. A glucose concentration in the collected blood was measured by means of a strip-operated blood glucose sensor (ONETOUCH Ultra, Inverness Medical Ltd. Stockport, UK).
A glucose concentration in plasma during fasting was measured by means of an automatic biochemical analyzer (Express Plus, Chiron Diagnostics Co., USA) and a kit reagent for analysis was purchased from Bayer (Tarrytown, N.Y., USA). An insulin concentration in plasma was measured using the Rat Insulin RIA kit (LINCO Research, Inc, St. Charles, USA).

CSc1ccc(/C=C/C=C/C(=O)N2CCCCC2)cc1 [LJ-2501, (2E,4E)-5-(4-(methylthio)phenyl)-1-(piperine-1-yl)penta-2,4-diene-1-one]
EC50 (3T3L1 cells): 101 µM | Vmax value of SIRT1 ([1]; in presence of 600 μM compound): without change | concentration at which SIRT1 activity was highest ([1]; increasing concentration of compound, human recombinant SIRT1): 600 µM | blood glucose concentrations after oral glucose compared to HFD (in words) (C57BL/6J mice; 2 g/kg glucose orally, 15, 30, 60 and 120 minutes): reduced in all time slots | insulin resistance index (HOMA-IR), reduction compared to HFD (C57BL/6J mice; calculated from fasting glucose and insulin, 10 weeks): 61% | blood glucose concentration during fasting, reduction compared to HFD (C57BL/6J mice; compound in high-fat diet for 10 weeks): 20% | blood insulin concentration, reduction compared to HFD (C57BL/6J mice; compound in high-fat diet for 10 weeks, fasting): 59% | area under the curve (AUC) of blood glucose concentration, reduction compared to HFD (C57BL/6J mice; oral glucose tolerance test, 2 g/kg glucose): 35%
